Measured values from patent publication US3996359A, “Novel stereoisomeric component A of stereoisomeric mixtures of 2'-unsymmetrical 16,17-methylenedioxy steroid 21-acylates, compositions thereof, and method of treating therewith” (AB Bofors, priority 1972, dated 1976).

Tested on: rats subjected to adrenalectomy (granuloma around implanted cotton wads)
Assay: granulom test (cotton-pellet test) on rats subjected to adrenalectomy: granuloma growth, thymus weight, body weight increase
Type: in vivo, rat (Sprague-Dawley)
Settings: for Dose required to obtain 50% inhibition of Granuloma growth: Table 3, adrenalectomized young male Sprague-Dawley rats, topical in implanted cotton wads, day 8; for Dose required to obtain 25% inhibition of Body weight Increase / Dose required to obtain 50% inhibition of Thymus weight: 11520 min
Text: In the following this active stereoisomeric component will always be designated B. As regards the steroids referred to in connection with the present invention the stereoisomeric mixture as well as the individual stereoisomeric components A and B have been investigated with regard to antiinflammatory activity in granulom test on rats subjected to adrenalectomy. The experimental procedure used corresponds largely to that described by G. Engelhardt: Arzneimittel-Forschung, 13, p. 588, 1963. According to this procedure the test substances are applied topically in the implanted cottom wads. It is thereby possible to study the local antiinflammatory effect in granulomas and also systemic effects in the form of retrogression of thymus and inhibition of bodyweight growth.
Young male rats of the Sprague-Dawley strain weighing about 110-130 g were subjected to adrenalectomy under ether narcosis. Two sterilized cottom wads of each about 6 mg were implanted simultaneously subcutaneously on the lateral side of the spinal. After awakening the animals were stored 5 per cage and were supplied with normal food and 1% sodium chloride solution as drinking water. On the eighth test day the animals were sacrificed by ether narcosis. The granuloma formed around the cotton wads were carefully recovered and thymus and body weights were measured. The two granuloma from each animal were dried over night at 80° C and weighed. After subtraction of the initial weight of the cotton wads the weight increase was used as a measure of the granulom growth.
The test substances were used dissolved in ethyl acetate. Under aseptic conditions 0.05 ml of said solutions were injected into each of the cotton wads, whereafter the solvent was allowed to evaporate in the desiccator. Normally 3 concentrations of each test substance with the standard doses 3.3, 30 and 270 γ/animal were investigated. Each test group normally comprised 10 rats. The cotton wads of the control group were injected with only ethyl acetate, but were in other respects treated in the same way. When considering the effects of the test substances the average values of granulom growth, thymus weight and body weight increase day 0-8 were measured in each group in absolute figures and in % of the corresponding figure of the control group. Dose-response curves were drafted and used for estimating the doses giving 50 % reduction of granulom growth and of thymus weight and 25 % decrease of body weight increase.
The following Table 4 discloses the results of the cotton-pellet test hereinbefore described, giving in addition figures for the therapeutic ratios, that is, the ratios of the ED50 for thymus weight inhibition divided by the ED50 for granuloma formation inhibition, and the ED25 for body weight increase inhibition over the ED50 for granuloma formation inhibition. As will be recognized, the higher the number for the therapeutic ratio, the more favorable the therapeutic ratio. […] As will be noted for the table, the therapeutic ratio for thymus over granuloma for the Component A esters is 4.2, 7.1, 4.5, 2.6, 2.2, 1.7, 2.5 and 1.7 times as good as it is for the corresponding Component B ester isomer, whereas the therapeutic ratio for the Component A ester isomer as far as body weight is granuloma 2.7, 3.3, 9.8, 6.4, 2.3, 2.8, 3.3 and 2.8 times as favorable as for the corresponding Component B ester isomer.

| Structure (SMILES) | Dose required to obtain 50% inhibition of Granuloma growth | decrease of body weight growth at the dose giving 50% inhibition of granulom growth (rat, in vivo) | decrease of thymus weight at the dose giving 50% inhibition of granulom growth (rat, in vivo) | Dose required to obtain 25% inhibition of Body weight Increase (rat, in vivo) | Dose required to obtain 50% inhibition of Thymus weight (rat, in vivo) | ED25 body weight increase inhibition (rat, in vivo) | ED50 thymus weight inhibition (rat, in vivo) | Therapeutic ratio body weight/granuloma (rat, in vivo) | Therapeutic ratio thymus/granuloma (rat, in vivo) |
| --- | --- | --- | --- | --- | --- | --- | --- | --- | --- |
| CC1(C)O[C@@H]2C[C@H]3[C@@H]4C[C@H](F)C5=CC(=O)C=C[C@]5(C)[C@@]4(F)[C@@H](O)C[C@]3(C)[C@]2(C(=O)CO)O1 [Fluocinolone acetonide, reference compound] | ~50 γ/animal | heavy decrease | heavy decrease | 20 γ/animal | 14 γ/animal |  |  |  |  |
| CCCC1O[C@@H]2C[C@H]3[C@@H]4CCC5=CC(=O)C=C[C@]5(C)[C@@]4(F)[C@@H](O)C[C@]3(C)[C@]2(C(=O)COC(=O)c2cccnc2)O1 (single isomer, unassigned) [21 B] | < 3 γ/animal |  |  | 5 γ/animal | 10 γ/animal |  |  |  |  |
| CCCC1O[C@@H]2C[C@H]3[C@@H]4CCC5=CC(=O)C=C[C@]5(C)[C@@]4(F)[C@@H](O)C[C@]3(C)[C@]2(C(=O)CO)O1 (single isomer, unassigned) [3 B] | 3 γ/animal |  |  | 100 γ/animal | 17 γ/animal |  |  |  |  |
| CCC1O[C@@H]2C[C@H]3[C@@H]4CCC5=CC(=O)C=C[C@]5(C)[C@@]4(F)[C@@H](O)C[C@]3(C)[C@]2(C(=O)CO)O1 (single isomer, unassigned) [2 A] | 25 γ/animal |  |  | 90 γ/animal | 130 γ/animal |  |  |  |  |
| CCCCCC1O[C@@H]2C[C@H]3[C@@H]4CCC5=CC(=O)C=C[C@]5(C)[C@H]4[C@@H](O)C[C@]3(C)[C@]2(C(=O)CO)O1 (single isomer, unassigned) [13 B] | 5 γ/animal |  |  | > 270 γ/animal | 210 γ/animal |  |  |  |  |
| CCCC1OC2CC3C4CC(F)C5=CC(=O)C=CC5(C)C4(F)C(O)CC3(C)C2(C(=O)COC(=O)c2cc3ccccc3o2)O1 (mixture of isomers) [25 A+B] | < 3 γ/animal |  |  | 10 γ/animal | 10 γ/animal |  |  |  |  |
| CCCC1O[C@@H]2C[C@H]3[C@@H]4CCC5=CC(=O)C=C[C@]5(C)[C@@]4(F)[C@@H](O)C[C@]3(C)[C@]2(C(=O)COC(=O)c2cccnc2)O1 (single isomer, unassigned) [21 A] | < 3 γ/animal |  |  | 70 γ/animal | 70 γ/animal |  |  |  |  |
| CCCC1OC2CC3C4CCC5=CC(=O)C=CC5(C)C4(F)C(O)CC3(C)C2(C(=O)CO)O1 (mixture of isomers) [3 A+B] | 10 γ/animal |  |  | > 30 γ/animal | > 30 γ/animal |  |  |  |  |
| CCCCC(=O)OCC(=O)[C@@]12OC(C)O[C@@H]1C[C@H]1[C@@H]3CCC4=CC(=O)C=C[C@]4(C)[C@@]3(F)[C@@H](O)C[C@@]12C (single isomer, unassigned) [18 A] | < 3 γ/animal |  |  | 33 γ/animal | 70 γ/animal | 33 µg/animal | 70 µg/animal | > 11.0 | > 23.3 |
| CCCCC(=O)OCC(=O)[C@@]12OC(CCC)O[C@@H]1C[C@H]1[C@@H]3CCC4=CC(=O)C=C[C@]4(C)[C@@]3(F)[C@@H](O)C[C@@]12C (single isomer, unassigned) [22 B] | < 3 γ/animal |  |  | 5 γ/animal | 35 γ/animal | 3 µg/animal | 35 µg/animal | > 1.7 | > 11.7 |
